The values below come from patent US20060148732A1, “Inhibition of NF-kappaB by triterpene compositions” (priority 2000, published 2006).

Each structure is given as a SMILES string.

This series relates to human tumor cell lines. Nature of the series: Cytotoxicity / anti-tumor activity on panel of tumor cell lines. It counts as cell-based. As for the experimental part:
Each of the extracts was then screened against a panel of human tumor and non-tumor cells including human ovarian cancer cell lines, T-leukemic cells, human epidermoid cells, human breast cancer cells, human prostate cancer cells, human foreskin fibroblast cells, human endothelial cells, and human renal cancer cells. The cells were first plated in 96-well plates for 18-24 hours at 37° C. The cells were then exposed to varying concentrations of the plant extracts, and incubated for 72 hours at 37° C., and stained with either MTT (3-(4,5-dimethylethiazol-2-yl)-2,5-diphenyl tetrazolium bromide; Sigma Chemical Co.) for 4 hours or crystal violet (Sigma Chemical Co.) for 20 minutes at room temperature. The MTT plates received lysis buffer (20% sodium dodecyl sulfate in 50% DMF) and were incubated for an additional 6 hours before taking an OD reading at 570 nm. The crystal violet plates were washed, dye was extracted for 3-4 hours with Sorenson's buffer (0.1 M sodium citrate (pH 4.2), 50% v/v ethanol), and the plates were read at 570-600 nm (Mujoo et al., 1996). Cytotoxicity of the screened extracts was indicated by comparing the OD readings between the treated media alone and the cells treated with the plant extract. Percent cytotoxicity was calculated by 100-% of control, where % of control =[((OD of cells treated with plant extract (treated sample))/(OD of cells exposed to media alone (untreated sample)))×100].
The following human cancer cell lines were obtained from American Type Tissue Culture Collection (ATCC, Rockville, Md.). SK-OV-3 and OVCAR-3 (ovarian), Jurkat (T-cell leukemia), U-937 (histiocytic lymphoma), MDA-MB-468, MDA-MB-453, MDA-MB-435, SK-BP-3, MCF-7, MDA-MB-231, BT-20 (breast), LNCaP, PC-3, DU145 (prostate), 769-P, 786-O A498 (renal) and PANC-1 (pancreatic). HEY and Dov-13 (ovarian), cell lines were obtained from M. D. Anderson Cancer Center. The following non-transformed human cell lines MCF-10A and 10F (breast epithelium) were obtained from M. D. Anderson Cancer Center. Hs 27 (human foreskin fibroblasts) and L929 (mouse fibroblasts) were obtained from ATCC. […]

For the molecule `C=C[C@](C)(O)CC/C=C(\CO)C(=O)O[C@H]1[C@H](O)[C@@H](O)[C@H](O[C@@](C)(C=C)CC/C=C(\CO)C(=O)O[C@H]2C[C@]3(C(=O)O[C@@H]4O[C@H](CO)[C@@H](O)[C@H](O)[C@H]4O[C@@H]4O[C@@H](C)[C@H](O[C@@H]5O[C@@H](CO)[C@H](O)[C@H]5O)[C@@H](O[C@@H]5O[C@H](CO)[C@@H](O)[C@H](O)[C@H]5O)[C@H]4O)[C@H](O)C[C@]4(C)C(=CC[C@@H]5[C@@]6(C)CC[C@H](O[C@@H]7O[C@H](CO[C@@H]8O[C@H](C)[C@H](O)[C@H](O)[C@H]8O[C@@H]8OC[C@@H](O)[C@H](O)[C@H]8O)[C@@H](O)[C@H](O)[C@H]7NC(C)=O)C(C)(C)[C@@H]6CC[C@]54C)[C@@H]3CC2(C)C)O[C@@H]1C` [Fraction D1], where the note is “769-P, MDA-MB-453, MDA-MB-231”, the “IC50 compared with F035” value was “comparable to F035”. The “potency compared with F035” value (C-2 (HEY Variant) and Jurkat cells) is given as “twice as potent as F035”.

As to `C=C[C@](C)(O)CC/C=C(\C)C(=O)O[C@H]1[C@H](O)[C@@H](O)[C@H](O[C@@](C)(C=C)CC/C=C(\CO)C(=O)O[C@H]2C[C@]3(C(=O)O[C@@H]4O[C@H](CO)[C@@H](O)[C@H](O)[C@H]4O[C@@H]4O[C@@H](C)[C@H](O[C@@H]5O[C@@H](CO)[C@H](O)[C@H]5O)[C@@H](O[C@@H]5O[C@H](CO)[C@@H](O)[C@H](O)[C@H]5O)[C@H]4O)[C@H](O)C[C@]4(C)C(=CC[C@@H]5[C@@]6(C)CC[C@H](O[C@@H]7O[C@H](CO[C@@H]8O[C@H](C)[C@H](O)[C@H](O)[C@H]8O[C@@H]8OC[C@@H](O)[C@H](O)[C@H]8O)[C@@H](O)[C@H](O)[C@H]7NC(C)=O)C(C)(C)[C@@H]6CC[C@]54C)[C@@H]3CC2(C)C)O[C@@H]1C` [Fraction G1], the “cytotoxicity compared with F035 and D1” value (most of the cells tested (Jurkat, C-2, 769-P, MDA-MB-231, MDA-MB-453)) is “significantly more cytotoxic than F035 and D1”.
